We go through eight compounds from patent US20110275630A1, “ISO[…] INHIBITORS” (ABBOTT LABORATORIES, priority 2003, published 2011).

Structures are written as SMILES.

T1 sequence (O75116 92-354 limits assumed, species assumed): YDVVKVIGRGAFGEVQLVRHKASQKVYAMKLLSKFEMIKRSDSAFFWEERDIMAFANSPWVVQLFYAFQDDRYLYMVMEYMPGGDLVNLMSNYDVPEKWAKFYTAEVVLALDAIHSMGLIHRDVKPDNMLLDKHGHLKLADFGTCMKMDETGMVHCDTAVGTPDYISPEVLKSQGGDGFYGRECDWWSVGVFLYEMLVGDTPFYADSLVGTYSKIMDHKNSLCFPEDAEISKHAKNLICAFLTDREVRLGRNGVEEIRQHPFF

The test has as its target T1, ROCK 2 (Homo sapiens, UniProt O75116).
T1 construct: ROCK1 (1.5 nM; Invitrogen) or ROCK2 (0.2 nM; Upstate) catalytic domains; purchased Upstate
Kind of test: ROCK kinase activity assays ([33P]-ATP FlashPlate assay / HTRF assay). Format: biochemical. An excerpt: [33P]-ATP assay: ROCK activity is initially determined using a radioactive FlashPlate-based assay.
Background: TR-FRET usually uses a lanthanide donor and a delayed reading to cut background.
As a reminder, the Ki is a measure of affinity in units of concentration, obtained from inhibition or displacement. In turn, `O=C(Nc1ccc(-c2cccc3c2CNC3=O)cc1)c1ccc(N2CCOCC2)nc1` [Example 136, 6-(morpholin-4-yl)-N-[4-(1-oxo-2,3-dihydro-1H-isoindol-4-yl)phenyl]pyridine-3-carboxamide] displayed a Ki of 201 nM. The result for `O=C(Nc1ccc(-c2cccc3c2CNC3=O)cc1)c1cccc(S(=O)(=O)N2CCOCC2)c1` [Example 135, 3-(morpholin-4-ylsulfonyl)-N-[4-(1-oxo-2,3-dihydro-1H-isoindol-4-yl)phenyl]benzamide] reads 8.75 nM; that for `O=C(Nc1ccc(-c2cccc3c2CNC3=O)cc1)c1cc2ccccc2o1` [Example 132, N-[4-(1-oxo-2,3-dihydro-1H-isoindol-4-yl)phenyl]-1-benzofuran-2-carboxamide], 66.1 nM. `O=C(Nc1ccc(-c2cccc3c2CNC3=O)cc1)c1cc2ccccc2[nH]1` [Example 140, N-[4-(1-oxo-2,3-dihydro-1H-isoindol-4-yl)phenyl]-1H-indole-2-carboxamide] showed an inhibitory constant (Ki) of 27.4 nM. The result for `NC1CCN(S(=O)(=O)c2cccc(C(=O)Nc3ccc(-c4cccc5c4CNC5=O)cc3)c2)CC1` [Example 137, 3-[(4-aminopiperidin-1-yl)sulfonyl]-N-[4-(1-oxo-2,3-dihydro-1H-isoindol-4-yl)phenyl]benzamide] reads 12.8 nM.

`O=C(Nc1ccc(-c2cccc3c2CNC3=O)cc1)c1ccc2c(c1)OCCO2` [Example 134, N-[4-(1-oxo-2,3-dihydro-1H-isoindol-4-yl)phenyl]-2,3-dihydro-1,4-benzodioxine-6-carboxamide] yielded a Ki of 331 nM.

In turn, `O=C(Nc1ccc(-c2cccc3c2CNC3=O)cc1)c1cc2cc(F)ccc2[nH]1` [Example 131, 5-fluoro-N-[4-(1-oxo-2,3-dihydro-1H-isoindol-4-yl)phenyl]-1H-indole-2-carboxamide] registered an inhibition constant (Ki) of 32.6 nM. Consider `O=C1NCc2c1cccc2-c1ccc(Nc2nc3ccc(Cl)cc3o2)cc1` [Example 139, 4-{4-[(6-chloro-1,3-benzoxazol-2-yl)amino]phenyl}-2,3-dihydro-1H-isoindol-1-one], for which the affinity corresponds to a Ki of 153 nM.
